Data taken from article PMC3216401 (Antiviral research, 2011).
Where two headings read alike, the source gives them in different places.

Key:
[1] = system: A/Hong Kong/2369/2009 (H1N1) oseltamivir resistant; assay: microbe, parasite or virus in culture; conditions: Influenza A virus, H1N1, MDCK, read-out: IC50, Visual Assay
[2] = system: A/Hong Kong/2369/2009 (H1N1) oseltamivir resistant
[3] = system: A/Hong Kong/2369/2009 (H1N1) oseltamivir resistant; assay: microbe, parasite or virus in culture; assay type: cell-based; conditions: Influenza A virus, H1N1, MDCK, read-out: IC90, VYR Assay
[4] = system: A/Hong Kong/2369/2009 (H1N1) oseltamivir resistant; assay: microbe, parasite or virus in culture; conditions: Influenza A virus, H1N1, MDCK, read-out: IC50, Neutral Red Uptake Assay
[5] = system: A/Hong Kong/2369/2009 (H1N1) oseltamivir resistant; remark: listed apart in the source

Row | Structure (SMILES) | IC50 [1] [µM] | SI (CC50/IC50), Visual Assay [2] | IC90 [3] [µM] | IC50 [4] [µM] | SI (CC50/IC50), Neutral Red Uptake Assay [5]
1 | Nc1ccn([C@@H]2O[C@H](CO)[C@@H](O)[C@H]2F)c(=O)n1 [2’-deoxy-2’-fluorocytidine, 2'-deoxy-2'-fluorocytidine] | 2.1 | >48 | 6.3 | 7.8 | >12.8
2 | Nc1ccn([C@@H]2O[C@H](CO)[C@@H](O)C2(F)F)c(=O)n1 [2’-deoxy-2’, 2’-difluorocytidine, reference compound] | 0.05 | >200 | 0.03 | 0.054 | >1900
